How the values were obtained:
Assay type in all cases: cell-based
[1] = system: panel of Gram-negative bacteria with different colistin susceptibilities; experiment: Fractional inhibitory concentration index (FICI) checkerboard assay with colistin; details: for FICI Values of Colistin and Potentiator in Resistant Bacteria: FICI values of ≦0.5 indicate synergy
Method: The fractional inhibitory concentration index (FICI) was determined in combination with colistin using the broth microdilution susceptibility test method as described by the CLSI (Methods for Dilution Antimicrobial Susceptibility Tests for Bacteria That Grow Aerobically; Approved Standard-Ninth Edition. 2012. CLSI document M07-A9. CLIS, 940 West Valley Road, Suite 1400, Wayne, Pa. 19087-1898 USA). This checkerboard assay was set up with decreasing concentrations of colistin across the plate from left to right and decreasing concentrations of potentiator from top to bottom. The FICI values were then calculated using the methods of Lorian et al. (Antibiotics in Laboratory Medicine—Fifth Edition. 2005. Lippincott, Williams, & Wilkins, Philadelphia, Pa.). A panel of Gram-negative bacteria with different colistin susceptibilities were tested.
Each of the tested compounds synergized with colistin in the three species of colistin-resistant bacteria tested.

E. coli = experiment: MIC shift assay of antibiotics (broth microdilution); details: E. coli (SCR1); compd. concentration 4.0 μM; colistin MIC 0.5-1.0 μg/mL
Method: Minimum inhibitory concentration (MIC) shift assays were performed to determine if the test compounds could alter the MIC of existing antibacterial drugs (e.g., ciprofloxacin and colistin) for E. coli, Acinetobacter baumannii, Klebsiella pneumoniae, Pseudomonas aeruginosa, and Enterobacter cloacae. The MIC shift assay is based on the standard broth microdilution MIC determination protocol of Wiegand et al, Nat Protoc. 3(2):163-75 (2008), with slight modifications that allow for the screening of up to seven test compounds in a single plate.
On the day before an assay, bacteria were grown overnight in cation-adjusted Mueller Hinton broth (CAMHB; Teknova, Hollister, Calif.) at 37° C. in an orbital shaker and sub-cultured at a 1:200 dilution the following morning. The cells were grown to OD600=0.5 to 0.8 and then diluted to OD600=0.01. From a serial dilution of each antibiotic at (50 μL of 2× concentrated stock solutions) several concentrations were added to the wells of a sterile, transparent round-bottom 96-well plate (Phenix Research Products, Candler, N.C.), and diluted cells (50 μL) were added to the plates for a starting OD600 of 0.005. Then, a test compound (2.5 μL) was added to each well to give a final concentration of 4 or 10 μM. A row of wells lacking test compound but containing the antibiotic was used to determine the MIC of that antibiotic alone. A column of wells lacking both antibiotic and test compound served as a growth control, and an additional column containing only CAMHB was included as a sterile blank control.
The plates were incubated for 18 to 20 h at 37° C. in an orbital shaker, and the cell density (OD600) was determined the following day in a microplate reader (PolarStar Optima, BMG Labtech). The MIC shift was determined by comparing the MIC of the antibiotic alone to the MIC of the antibiotic plus test compound.

[2] = system: Acinetobacter baumannii (Ab23); experiment: as above; details: for Colistin MIC Shift: A. baumannii (MDR Ab), compd. concentration 4.0 μM, colistin MIC 0.5-1.0 μg/mL; for colistin MIC shift, Ab23 at (compd concentration): fold shift of colistin MIC, nc = no changeover or no shift
Method in brief: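 Following a modified Wiegand broth microdilution protocol, colistin serial dilutions with or without test compound were set up in round-bottom 96-well plates and inoculated with A. baumannii cells to a starting OD600 of 0.005. Plates were shaken at 37° C. for 18 to 20 h and read at OD600. The fold shift was calculated from colistin MIC alone versus colistin MIC with test compound, with growth and medium-only blank controls.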

[3] = colistin-resistant A. baumannii
[4] = colistin-resistant K. pneumoniae
[5] = colistin-resistant P. aeruginosa

SMILES | Colistin MIC Shift (E. coli) | Colistin MIC Shift [2] | colistin MIC shift, Ab23 at (compd concentration) ([2]; compound concentration 2 μM) | further results
CN(C)CCCNc1nc(-c2cccc(-c3cc(C(F)(F)F)ccc3F)c2)nc2c(C(F)(F)F)cccc12 [IV] |  |  |  | MIC Shift of Colistin and Potentiator in Resistant Bacteria [1, 3]: 133 x; FICI Values of Colistin and Potentiator in Resistant Bacteria [1, 3]: 0.24; MIC Shift of Colistin and Potentiator in Resistant Bacteria [1, 4]: 512 x; FICI Values of Colistin and Potentiator in Resistant Bacteria [1, 4]: 0.21; MIC Shift of Colistin and Potentiator in Resistant Bacteria [1, 5]: 33 x; FICI Values of Colistin and Potentiator in Resistant Bacteria [1, 5]: 0.27
CN(C)CCCNc1nc(-c2cc(Br)cc(C(F)(F)F)c2)nc2c(Cl)cccc12 [compound 337] | 4x | 4x | 8-16x | 
CN(C)CCCNc1nc(-c2cc(Br)cc(C(F)(F)F)c2)nc2c(Br)cccc12 [compound 338] | 4x | 4x | 8-16x | 
Cc1cccc2c(NCCCN(C)C)nc(-c3cc(C(F)(F)F)cc(C(F)(F)F)c3)nc12 [compound 339] | 8x | 8x | 8-16x | 
CNCCCN(C)c1nc(-c2cc(Br)cc(C(F)(F)F)c2)nc2c(C)cccc12 [compound 342] | 8x | 8x | 8-16x | 
Cc1cccc2c(NCCN(C)C)nc(-c3cc(Br)cc(C(F)(F)F)c3)nc12 [compound 345] | 16x | 4x | 8-16x | 
Cc1cccc2c(NCCCN3CCNCC3)nc(-c3cc(Br)cc(C(F)(F)F)c3)nc12 [compound 348] | 16x | 8x | 8-16x | 
Cc1cccc2c(NCCCN(C)C)nc(-c3cc(Br)cc(C(F)(F)F)c3)nc12 [compound 353] | 8x | 8x | 8-16x | 
NCC(=O)n1cc(-c2ccc(Cl)c(Cl)c2)c2cc(Cl)ccc21 [compound 360] | 4x | 4x | 16x | 
CC(N)C(=O)n1cc(-c2ccc(Cl)c(Cl)c2)c2cc(Cl)ccc21 (stereo not drawn) [compound 361] | 4x | 4x | 16x | 
CNCCCN(C)c1nc(-c2cccc(-c3cc(C(F)(F)F)ccc3F)c2)nc2c(C)cccc12 [compound 487] | 16x | 8x |  | colistin MIC shift, Ab23 at (compd concentration) ([2]; compound concentration 4 μM): 32x
CCN(CC)CCCC(C)Nc1nc(-c2cc(-c3ccccc3)cc(C(F)(F)F)c2)nc2c(C)cccc12 (stereo not drawn) [compound 492] | 8x | 8x |  | colistin MIC shift, Ab23 at (compd concentration) ([2]; compound concentration 4 μM): 32x
CN(C)CCCNc1nc(-c2cc(Br)cc(C(F)(F)F)c2)nc2c(C(F)(F)F)cccc12 [compound 505] | 8x | 4x |  | colistin MIC shift, Ab23 at (compd concentration) ([2]; compound concentration 4 μM): 32x
Cc1cccc2c(NCCCN(C)C)nc(-c3cc(Cl)cc(C(F)(F)F)c3)nc12 [compound 506] | 8x | 4x |  | colistin MIC shift, Ab23 at (compd concentration) ([2]; compound concentration 4 μM): 16x

Reference: patent US20160168140A1, “HETEROCYCLIC COMPOUNDS AS ANTIBIOTIC POTENTIATORS” (priority 2014, published 2016)
